The results in this text go back to patent publication US20140323504A1, “Pyrazolo[4,3-c]Pyridine Derivatives As Kinase Inhibitors” (Cellzome Limited, priority 2011, published 2014).

The target in one assay is T1, BTK (Homo sapiens, UniProt Q06187).
T1 construct: purchased ProQinase GmbH, Freiburg, Germany
The assay can be described thus: Kinobeads assay with quantitative mass spectrometry, BTK. The assay is classed as binding. The conditions noted are these: Jurkat/Ramos lysate, read-out: BTK inhibition value (IC50). The protocol: Selected compounds of the present invention as described in the previous examples were tested in a Kinobeads™ assay as described (WO-A 2006/134056; Bantscheff et al., 2007. Nature Bioteclmol. 25, 1035-1044).
Compounds were incubated with cell lysate aliquots (1:1 mix of Jurkat and Ramos cell lysates) for 45 minutes at 4° C. and allowed to bind to the proteins in the lysate sample. Then the Kinobeads™ affinity matrix was added to capture proteins that were not interacting with the previously added compound. After this two hour incubation step at 4° C. beads were separated from the lysate and bead bound proteins were eluted in SDS sample buffer and subsequently separated by SDS-Polyacrylamide gel electrophoresis. The gel was stained with colloidal Coomassie and stained areas of each gel lane were cut out and subjected to in-gel proteolytic digestion with trypsin. Peptides originating from the different gel areas were labeled with isobaric tagging reagents (TMT reagents, Thermofisher) as shown in Table 7. The TMT reagents are a set of multiplexed, amine-specific, stable isotope reagents that can label peptides in up to six different biological samples enabling simultaneous identification and quantitation of peptides. The combined samples were fractionated using reversed-phase chromatography at pH 11 and fractions were subsequently analyzed with a nano-flow liquid chromatography system coupled online to a tandem mass spectrometer (LC-MSMS) experiment followed by reporter ion quantification in the MSMS spectra (Ross et al., 2004. Mol. Cell. Proteomics 3(12):1154-1169; Dayon et al., 2008. Anal. Chem. 80(8):2921-2931; Thompson et al., 2003. Anal. Chem. 75(8):1895-1904). Further experimental protocols can be found in WO2006/134056 and previous publications (Bantscheff et al., 2007. Nat. Biotechnol. 25, 1035-1044; Bantscheff et al., 2011. Nat. Biotechnol. 29(3):255-265).

Another assay has as its target T2, JAK3 (Homo sapiens, UniProt P52333).
T2 sequence (P52333 1-1124): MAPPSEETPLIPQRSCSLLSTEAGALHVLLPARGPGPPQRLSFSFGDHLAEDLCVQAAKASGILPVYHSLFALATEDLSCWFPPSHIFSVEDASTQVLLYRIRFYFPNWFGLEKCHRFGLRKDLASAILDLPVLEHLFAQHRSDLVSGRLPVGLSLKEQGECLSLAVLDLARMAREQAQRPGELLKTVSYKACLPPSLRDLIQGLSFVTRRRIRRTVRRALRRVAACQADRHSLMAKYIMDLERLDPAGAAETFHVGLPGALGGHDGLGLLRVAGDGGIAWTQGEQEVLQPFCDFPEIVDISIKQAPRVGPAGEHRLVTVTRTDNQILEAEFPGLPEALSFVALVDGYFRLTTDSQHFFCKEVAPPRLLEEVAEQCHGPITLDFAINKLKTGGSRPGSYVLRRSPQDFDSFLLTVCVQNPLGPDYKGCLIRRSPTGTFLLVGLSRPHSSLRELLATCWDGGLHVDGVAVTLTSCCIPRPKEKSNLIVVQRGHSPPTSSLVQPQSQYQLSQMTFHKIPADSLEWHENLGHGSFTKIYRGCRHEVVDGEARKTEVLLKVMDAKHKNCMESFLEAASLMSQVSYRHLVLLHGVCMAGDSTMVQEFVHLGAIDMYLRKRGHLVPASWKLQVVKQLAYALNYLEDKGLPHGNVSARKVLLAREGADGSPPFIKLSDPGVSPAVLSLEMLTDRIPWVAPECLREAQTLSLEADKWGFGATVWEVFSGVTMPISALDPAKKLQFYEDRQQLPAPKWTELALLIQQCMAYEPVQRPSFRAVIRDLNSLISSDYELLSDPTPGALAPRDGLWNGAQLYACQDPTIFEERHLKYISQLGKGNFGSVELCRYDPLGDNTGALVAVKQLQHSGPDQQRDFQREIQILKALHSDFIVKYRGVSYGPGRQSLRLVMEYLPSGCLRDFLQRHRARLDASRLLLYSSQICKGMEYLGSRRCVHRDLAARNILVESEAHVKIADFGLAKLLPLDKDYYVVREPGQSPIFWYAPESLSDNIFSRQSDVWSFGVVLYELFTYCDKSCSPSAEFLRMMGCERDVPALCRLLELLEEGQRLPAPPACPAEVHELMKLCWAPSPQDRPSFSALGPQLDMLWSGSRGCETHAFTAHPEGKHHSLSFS
The assay can be described thus: Radiometric protein kinase assay (33PanQinase, ProQinase), JAK3. The conditions noted are these: read-out: JAK3 enzyme assay IC50. Also noted: endogenous in cells; host or cells: mixed Molt4/Ramos cell lysate (1:2). Format: biochemical. The protocol: A radiometric protein kinase assay (^33PanQinase® Activity Assay; ProQinase GmbH, Freiburg, Germany) was used for measuring the kinase activity of the protein kinases BLK, BTK, ITK and JAK3. All kinase assays were performed in 96-well FlashPlates™ from PerkinElmer (Boston, Mass., USA) in a 50 μl reaction volume. The reaction cocktail was pipetted in four steps in the following order: • 20 μl of assay buffer (standard buffer) • 5 μl of ATP solution (in H2O) • 5 μl of test compound (in 10% DMSO) • 10 μl of substrate/10 μl of enzyme solution (premixed)
The reaction cocktails were incubated at 30° C. for 60 minutes. The reaction was stopped with 50 μl of 2% (v/v) H3PO4, plates were aspirated and washed two times with 200 μl 0.9% (w/v) NaCl. Incorporation of ^33Pi was determined with a microplate scintillation counter (Microbeta, Wallac). All assays were performed with a BeckmanCoulter/SAGIAN™ Core System.

T1 sequence (Q06187 whole entry): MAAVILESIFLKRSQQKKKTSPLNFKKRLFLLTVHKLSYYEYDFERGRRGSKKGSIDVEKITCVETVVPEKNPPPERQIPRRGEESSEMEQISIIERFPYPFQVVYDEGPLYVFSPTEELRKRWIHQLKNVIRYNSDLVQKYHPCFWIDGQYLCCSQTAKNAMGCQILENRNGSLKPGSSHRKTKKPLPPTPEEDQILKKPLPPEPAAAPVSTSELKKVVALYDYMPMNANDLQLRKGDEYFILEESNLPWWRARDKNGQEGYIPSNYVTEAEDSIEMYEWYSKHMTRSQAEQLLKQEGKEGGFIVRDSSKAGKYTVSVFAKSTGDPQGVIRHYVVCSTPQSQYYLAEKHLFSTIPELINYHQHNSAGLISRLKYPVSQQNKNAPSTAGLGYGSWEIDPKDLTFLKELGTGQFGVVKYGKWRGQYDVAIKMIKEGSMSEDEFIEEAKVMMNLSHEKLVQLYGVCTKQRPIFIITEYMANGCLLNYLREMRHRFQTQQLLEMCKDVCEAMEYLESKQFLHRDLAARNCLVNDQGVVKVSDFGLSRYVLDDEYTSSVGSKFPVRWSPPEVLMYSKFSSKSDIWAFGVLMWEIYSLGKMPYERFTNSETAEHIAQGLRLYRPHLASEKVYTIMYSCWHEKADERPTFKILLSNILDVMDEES

Usually IC50 stands for the point on the concentration scale where inhibition reaches its midpoint. For the molecule `C#CC(=O)Nc1cccc(Cn2ncc3cnc(Nc4cnn(C)c4)nc32)c1` [Example 3, N-(3-((6-((1-Methyl-1H-pyrazol-4-yl)amino)-1H-pyrazolo[3,4-d]pyrimidin-1-yl)methyl)phenyl)propiolamide], the 50% inhibitory concentration (IC50) on BTK turned out to be 12 nM; at JAK3, 4 nM.

Consider `C=CC(=O)Nc1cc(Cn2ncc3cnc(Nc4cnn(C)c4)nc32)ccc1F` [Example 2, […]], for which the IC50 on BTK was 72 nM.

In the case of `CC(=O)Nc1cccc(Cn2ncc3cnc(Nc4cnn(C)c4)nc32)c1` [compound 2, N-(3-((6-((1-methyl-1H-pyrazol-4-yl)amino)-1H-pyrazolo[3,4-d]pyrimidin-1-yl)methyl)phenyl)acetamide, reference compound], the IC50 on JAK3 is 290 nM.

Take `C=CS(=O)(=O)Nc1cccc(Cn2ncc3cnc(Nc4cnn(C)c4)nc32)c1` [Example 4, N-(3-((6-((1-Methyl-1H-pyrazol-4-yl)amino)-1H-pyrazolo[3,4-d]pyrimidin-1-yl)methyl)phenyl)ethenesulfonamide]: the IC50 on JAK3 was determined as 7 nM.

`C=CC(=O)Nc1cccc(Cn2ncc3cnc(Nc4cnn(C)c4)nc32)c1` [Example 1, N-(3-((6-((1-Methyl-1H-pyrazol-4-yl)amino)-1H-pyrazolo[3,4-d]pyrimidin-1-yl)methyl)phenyl)acrylamide]: the IC50 is 12 nM at BTK and 3 nM at JAK3.
